Assay results published in the supplement of paper PMC11451515.

Test system: NOMO1
Experiment: cell viability relative to DMSO control; higher = less cytotoxic
Conditions: 48 h
In short: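 Viability was expressed as a per-plate percentage of DMSO wells, with cell-free wells as background. Leukemia cells (NOMO1 or SEM at 500 cells/well, P12-Ichikawa at 1000 cells/well) were adapted for at least four passages in each medium and seeded in 1536-well plates (5 μl). Library compounds in DMSO were pin-dosed over an 11-point threefold series from 47 μM to 0.79 nM, and CellTiter-Glo One luminescence was read after 48 h at 37°C.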

[1] = HPLM + 10% dialyzed FBS, 0.000781 µM
[2] = HPLM + 10% dialyzed FBS, 0.00234 µM
[3] = HPLM + 10% dialyzed FBS, 0.00702 µM
[4] = HPLM + 10% dialyzed FBS, 0.0211 µM
[5] = HPLM + 10% dialyzed FBS, 0.0632 µM
[6] = HPLM + 10% dialyzed FBS, 0.19 µM
[7] = HPLM + 10% dialyzed FBS, 0.569 µM
[8] = HPLM + 10% dialyzed FBS, 1.71 µM
[9] = HPLM + 10% dialyzed FBS, 5.12 µM
[10] = HPLM + 10% dialyzed FBS, 15.4 µM
[11] = HPLM + 10% dialyzed FBS, 46.1 µM
[12] = RPMI 5 mM glucose + 10% FBS, 0.000781 µM
[13] = RPMI 5 mM glucose + 10% FBS, 0.00234 µM
[14] = RPMI 5 mM glucose + 10% FBS, 0.00702 µM
[15] = RPMI 5 mM glucose + 10% FBS, 0.0211 µM
[16] = RPMI 5 mM glucose + 10% FBS, 0.0632 µM
[17] = RPMI 5 mM glucose + 10% FBS, 0.19 µM
[18] = RPMI 5 mM glucose + 10% FBS, 0.569 µM
[19] = RPMI 5 mM glucose + 10% FBS, 1.71 µM
[20] = RPMI 5 mM glucose + 10% FBS, 5.12 µM
[21] = RPMI 5 mM glucose + 10% FBS, 15.4 µM
[22] = RPMI 5 mM glucose + 10% FBS, 46.1 µM
[23] = RPMI 5 mM glucose + 10% dialyzed FBS, 0.000781 µM
[24] = RPMI 5 mM glucose + 10% dialyzed FBS, 0.00234 µM
[25] = RPMI 5 mM glucose + 10% dialyzed FBS, 0.00702 µM
[26] = RPMI 5 mM glucose + 10% dialyzed FBS, 0.0211 µM
[27] = RPMI 5 mM glucose + 10% dialyzed FBS, 0.0632 µM
[28] = RPMI 5 mM glucose + 10% dialyzed FBS, 0.19 µM
[29] = RPMI 5 mM glucose + 10% dialyzed FBS, 0.569 µM
[30] = RPMI 5 mM glucose + 10% dialyzed FBS, 1.71 µM
[31] = RPMI 5 mM glucose + 10% dialyzed FBS, 5.12 µM
[32] = RPMI 5 mM glucose + 10% dialyzed FBS, 15.4 µM
[33] = RPMI 5 mM glucose + 10% dialyzed FBS, 46.1 µM

NC/1=N/C2=C([NH]C=N2)C(=S)N1
cell viability [1]: 107% | cell viability [2]: 121% | cell viability [3]: 121% | cell viability [4]: 133% | cell viability [5]: 131% | cell viability [6]: 115% | cell viability [7]: 122% | cell viability [8]: 137% | cell viability [9]: 126% | cell viability [10]: 145% | cell viability [11]: 35.1% | cell viability [12]: 111% | cell viability [13]: 119% | cell viability [14]: 123% | cell viability [15]: 119% | cell viability [16]: 113% | cell viability [17]: 115% | cell viability [18]: 117% | cell viability [19]: 120% | cell viability [20]: 109% | cell viability [21]: 101% | cell viability [22]: 27.6%

CC(C)=CC[C@@H](O)C/1=C/C(=O)C2=C(O)C=CC(=C2C1=O)O
cell viability [1]: 91.5% | cell viability [2]: 108% | cell viability [3]: 95.5% | cell viability [4]: 100% | cell viability [5]: 105% | cell viability [6]: 113% | cell viability [7]: 123% | cell viability [8]: 85.1% | cell viability [9]: 33.5% | cell viability [10]: 25.8% | cell viability [11]: 17% | cell viability [12]: 93.7% | cell viability [13]: 105% | cell viability [14]: 102% | cell viability [15]: 102% | cell viability [16]: 95.7% | cell viability [17]: 96% | cell viability [18]: 108% | cell viability [19]: 52.6% | cell viability [20]: 17.3% | cell viability [21]: 17.9% | cell viability [22]: 12.2% | cell viability [23]: 88.2% | cell viability [24]: 92.6% | cell viability [25]: 93% | cell viability [26]: 113% | cell viability [27]: 98.1% | cell viability [28]: 109% | cell viability [29]: 107% | cell viability [30]: 70.2% | cell viability [31]: 24.5% | cell viability [32]: 15.3% | cell viability [33]: 21.2%

CCOC(=O)\C1=C(/C)N\C2=C(C1C3=CC=C(C=C3)C4=CC=CC=C4)\C(=O)CC(C)(C)C2 (stereo unspecified)
cell viability [1]: 125% | cell viability [2]: 97.2% | cell viability [3]: 125% | cell viability [4]: 117% | cell viability [5]: 116% | cell viability [6]: 114% | cell viability [7]: 102% | cell viability [8]: 102% | cell viability [9]: 106% | cell viability [10]: 82.3% | cell viability [11]: 73.6% | cell viability [12]: 107% | cell viability [13]: 103% | cell viability [14]: 102% | cell viability [15]: 108% | cell viability [16]: 105% | cell viability [17]: 109% | cell viability [18]: 103% | cell viability [19]: 102% | cell viability [20]: 106% | cell viability [21]: 87% | cell viability [22]: 88.2% | cell viability [23]: 110% | cell viability [24]: 103% | cell viability [25]: 111% | cell viability [26]: 114% | cell viability [27]: 113% | cell viability [28]: 95.1% | cell viability [29]: 104% | cell viability [30]: 112% | cell viability [31]: 90.1% | cell viability [32]: 73.7% | cell viability [33]: 74.8%

Cc1ccc([S+](=O)([O-])N[C@@H](Cc2ccccc2)C(=O)CCl)cc1
cell viability [1]: 90.2% | cell viability [2]: 100% | cell viability [3]: 119% | cell viability [4]: 119% | cell viability [5]: 87.3% | cell viability [6]: 112% | cell viability [7]: 99.1% | cell viability [8]: 107% | cell viability [9]: 106% | cell viability [10]: 101% | cell viability [11]: 47.6% | cell viability [12]: 91.8% | cell viability [13]: 89.4% | cell viability [14]: 96% | cell viability [15]: 96.9% | cell viability [16]: 97.9% | cell viability [17]: 91.4% | cell viability [18]: 90.3% | cell viability [19]: 81% | cell viability [20]: 95.1% | cell viability [21]: 90.7% | cell viability [22]: 71.1% | cell viability [23]: 88.8% | cell viability [24]: 99.6% | cell viability [25]: 94.6% | cell viability [26]: 94.6% | cell viability [27]: 100% | cell viability [28]: 85.2% | cell viability [29]: 99.4% | cell viability [30]: 108% | cell viability [31]: 97.7% | cell viability [32]: 85.1% | cell viability [33]: 73.6%
